{"source": "ChEMBL document CHEMBL3045918", "about": "“Synthesis, crystal structure, and insecticidal activities of highly congested hexahydroimidazo[1,2-a]pyridine derivatives: effect of conformation on activities” (2010)", "assay_type_in_all_cases": "functional", "key": {"Aphis craccivora [1]": {"test_system": "Aphis craccivora", "experiment": "Insecticidal activity against Aphis craccivora (cowpea aphid) in compound treated horsebean plant leaves assessed as mortality at 500 mg/L measured after 24 hr by leaf-dip method"}, "Mythimna separata [2]": {"test_system": "Mythimna separata", "experiment": "Insecticidal activity against second-instar larvae Mythimna separata (Oriental armyworm) in compound treated corn leaves assessed as mortality at 500 mg/L measured after 48 hr"}, "Mythimna separata [3]": {"test_system": "Mythimna separata", "experiment": "Insecticidal activity against second-instar larvae Mythimna separata (Oriental armyworm) in compound treated corn leaves assessed as mortality measured after 48 hr"}, "Aphis craccivora [4]": {"test_system": "Aphis craccivora", "experiment": "Insecticidal activity against Aphis craccivora (cowpea aphid) in compound treated horsebean plant leaves assessed as mortality measured after 24 hr by leaf-dip method"}, "Nilaparvata lugens [5]": {"test_system": "Nilaparvata lugens", "experiment": "Insecticidal activity against compound sensitive second-instar larvae Nilaparvata lugens (brown planthopper) in compound rice seedlings assessed as mortality at 25 degC measured after 6 days", "settings": "144 h"}, "Nilaparvata lugens [6]": {"test_system": "Nilaparvata lugens", "experiment": "Insecticidal activity against compound resistant second-instar larvae Nilaparvata lugens (brown planthopper) in compound rice seedlings assessed as mortality at 25 degC measured after 6 days", "settings": "144 h"}, "Nilaparvata lugens [7]": {"test_system": "Nilaparvata lugens", "experiment": "Insecticidal activity against compound sensitive second-instar larvae Nilaparvata lugens (brown planthopper) in compound rice seedlings assessed as toxicity at 25 degC measured after 6 days relative to control"}, "Nilaparvata lugens [8]": {"test_system": "Nilaparvata lugens", "experiment": "Insecticidal activity against compound resistant second-instar larvae Nilaparvata lugens (brown planthopper) in compound rice seedlings assessed as toxicity at 25 degC measured after 6 days relative to control"}}, "data": [{"smiles": "Cc1ccc([C@H]2C([N+](=O)[O-])=C3N(Cc4ccc(Cl)nc4)CCN3[C@H](c3ccc(C)s3)[C@@]2(C2=NCCN2Cc2ccc(Cl)nc2)[N+](=O)[O-])s1", "values": [{"measurement": "mortality at 500 µg/mL", "setting": "Aphis craccivora [1]", "result": 100, "unit": "%"}, {"measurement": "mortality at 500 µg/mL", "setting": "Mythimna separata [2]", "result": 0, "unit": "%"}]}, {"smiles": "O=[N+]([O-])C1=C2N(Cc3ccc(Cl)nc3)CCN2[C@H](c2cccs2)[C@@](C2=NCCN2Cc2ccc(Cl)nc2)([N+](=O)[O-])[C@H]1c1cccs1", "values": [{"measurement": "mortality at 500 µg/mL", "setting": "Aphis craccivora [1]", "result": 85.6, "unit": "%"}, {"measurement": "mortality at 500 µg/mL", "setting": "Mythimna separata [2]", "result": 0, "unit": "%"}]}, {"smiles": "O=[N+]([O-])C1=C2N(Cc3ccc(Cl)nc3)CCN2[C@H](c2ccco2)[C@@](C2=NCCN2Cc2ccc(Cl)nc2)([N+](=O)[O-])[C@H]1c1ccco1", "values": [{"measurement": "mortality at 500 µg/mL", "setting": "Aphis craccivora [1]", "result": 87, "unit": "%"}, {"measurement": "mortality at 500 µg/mL", "setting": "Mythimna separata [2]", "result": 0, "unit": "%"}]}, {"smiles": "Cc1ccc([C@@H]2C([N+](=O)[O-])=C3N(Cc4ccc(Cl)nc4)CCN3[C@H](c3ccc(C)s3)[C@@]2(C2=NCCN2Cc2ccc(Cl)nc2)[N+](=O)[O-])s1", "values": [{"measurement": "LC50", "setting": "Mythimna separata [3]", "result": 27.9, "unit": "µM"}, {"measurement": "LC50", "setting": "Aphis craccivora [4]", "result": 3.79, "unit": "µM"}, {"measurement": "mortality at 500 µg/mL", "setting": "Aphis craccivora [1]", "result": 100, "unit": "%"}, {"measurement": "mortality at 500 µg/mL", "setting": "Mythimna separata [2]", "result": 100, "unit": "%"}]}, {"smiles": "Cc1ccc([C@@H]2C([N+](=O)[O-])=C3N(Cc4ccc(Cl)nc4)CCN3[C@H](c3ccc(C)o3)[C@@]2(C2=NCCN2Cc2ccc(Cl)nc2)[N+](=O)[O-])o1", "values": [{"measurement": "LC50", "setting": "Mythimna separata [3]", "result": 43, "unit": "µM"}, {"measurement": "LC50", "setting": "Aphis craccivora [4]", "result": 1.31, "unit": "µM"}, {"measurement": "mortality at 500 µg/mL", "setting": "Aphis craccivora [1]", "result": 100, "unit": "%"}, {"measurement": "mortality at 500 µg/mL", "setting": "Mythimna separata [2]", "result": 100, "unit": "%"}]}, {"smiles": "O=[N+]([O-])C1=C2N(Cc3ccc(Cl)nc3)CCN2[C@H](c2cccs2)[C@@](C2=NCCN2Cc2ccc(Cl)nc2)([N+](=O)[O-])[C@@H]1c1cccs1", "values": [{"measurement": "LC50", "setting": "Mythimna separata [3]", "result": 44.1, "unit": "µM"}, {"measurement": "LC50", "setting": "Aphis craccivora [4]", "result": 46.8, "unit": "µM"}, {"measurement": "mortality at 500 µg/mL", "setting": "Aphis craccivora [1]", "result": 100, "unit": "%"}, {"measurement": "mortality at 500 µg/mL", "setting": "Mythimna separata [2]", "result": 100, "unit": "%"}]}, {"smiles": "O=[N+]([O-])C1=C2N(Cc3ccc(Cl)nc3)CCN2[C@H](c2ccco2)[C@@](C2=NCCN2Cc2ccc(Cl)nc2)([N+](=O)[O-])[C@@H]1c1ccco1", "values": [{"measurement": "LC50", "setting": "Mythimna separata [3]", "result": 26.5, "unit": "µM"}, {"measurement": "LC50", "setting": "Nilaparvata lugens [5]", "result": 1.07, "unit": "µM"}, {"measurement": "LC50", "setting": "Aphis craccivora [4]", "result": 4.43, "unit": "µM"}, {"measurement": "LC50", "setting": "Nilaparvata lugens [6]", "result": 3.76, "unit": "µM"}, {"measurement": "mortality at 500 µg/mL", "setting": "Aphis craccivora [1]", "result": 100, "unit": "%"}, {"measurement": "Ratio", "setting": "Nilaparvata lugens [7]", "result": 1.62}, {"measurement": "mortality at 500 µg/mL", "setting": "Mythimna separata [2]", "result": 100, "unit": "%"}, {"measurement": "Ratio", "setting": "Nilaparvata lugens [8]", "result": 10.32}]}, {"smiles": "O=[N+]([O-])/N=C1\\NCCN1Cc1ccc(Cl)nc1", "note": "[IMIDACLOPRID]", "values": [{"measurement": "LC50", "setting": "Mythimna separata [3]", "result": 125, "unit": "µM"}, {"measurement": "LC50", "setting": "Nilaparvata lugens [5]", "result": 1.73, "unit": "µM"}, {"measurement": "LC50", "setting": "Aphis craccivora [4]", "result": 35, "unit": "µM"}, {"measurement": "LC50", "setting": "Nilaparvata lugens [6]", "result": 38.8, "unit": "µM"}, {"measurement": "mortality at 500 µg/mL", "setting": "Aphis craccivora [1]", "result": 100, "unit": "%"}, {"measurement": "Ratio", "setting": "Nilaparvata lugens [7]", "result": 1}, {"measurement": "mortality at 500 µg/mL", "setting": "Mythimna separata [2]", "result": 100, "unit": "%"}, {"measurement": "Ratio", "setting": "Nilaparvata lugens [8]", "result": 1}]}]}
